Like-named read-outs stand apart in the source and are kept apart here.
Key:
Assay type in all cases: biochemical
Human PDE4B1 = Human PDE4B1 (Homo sapiens (Human), UniProt Q07343, S133E/S654A/S659A/S661A); assay: PDE4B1 Scintillation Proximity Assay (SPA), inhibition of enzyme activity; settings: read-out: Human PDE4B FL
Method: (§1) The PDE4A, PDE4B, PDE4C and PDE4D binding affinity for the compounds of the present invention was determined utilizing the following biological assay(s):
The recombinant Bacmid was isolated and used to transfect insect cells to generate a viral stock. To generate cell paste for purification, insect cells were infected with the virus stock and cells were harvested 72 hours after infection as described in Seeger, T. F. et al., Brain Research 985 (2003) 113-126. Insect cell paste was lysed and after centrifugation, the supernatant was chromatographed on Ni-NTA agarose (Qiagen) as described in Seeger, T. F. et al., Brain Research 985 (2003) 113-126. Ni-NTA agarose eluting fractions containing PDE4 were pooled, diluted with Q buffer A (20 mM Tris HCl pH 8, 5% glycerol, 1 mM TCEP) to reduce NaCl to ˜100 mM and loaded on a Source 15Q (GE Healthcare) column. After washing with Q buffer A/10% buffer B to baseline, PDE4D was eluted with a gradient from 10% to 60% of Buffer B (20 mM Tris HCl pH 8, 1 M NaCl, 5% glycerol, 1 mM TCEP). PDE4D fractions were analyzed by SDS-PAGE Coomassie blue staining, pooled based on purity, frozen and stored at −80° C.
(§2) The PDE4A3, PDE4B1, PDE4C1 and PDE4D3 assays use the Scintillation Proximity Assay (SPA) technology to measure the inhibition of human recombinant PDE4A1, PDE4B3, PDE4C1, and PDE4D3 enzyme activity by compounds in vitro. The PDE4A1, PDE4B3, PDE4C1, and PDE4D3 assays are run in parallel using identical parameters, except for the concentration of enzyme ([…]). The assays are performed in a 384-well format with 50 uL assay buffer (50 mM TRIS pH7.5; 1.3 mM MgCl2; 0.01% Brij) containing enough PDE4A3, PDE4B1, PDE4C1, and PDE4D to convert ˜20% of substrate (1 μM cAMP consisting of 20 nM 3H-cAMP+[…] cold cAMP) and a range of inhibitors. Reactions are incubated for 30 min at 25° C. The addition of 20 uL of 8 mg/ml yitrium silicate SPA beads (Perkin Elmer) stops the reaction. The plates are sealed (TopSeal, Perkin Elmer) and the beads are allowed to settle for 8 hrs, after which they are read on the Trilux Microbeta overnight.

Human PDE4C1 = Human PDE4C1 (Homo sapiens (Human), UniProt Q08493); assay: PDE4C1 Scintillation Proximity Assay (SPA), inhibition of enzyme activity; settings: read-out: Human PDE4C FL
Chain of Human PDE4C1 (Q08493 2-712): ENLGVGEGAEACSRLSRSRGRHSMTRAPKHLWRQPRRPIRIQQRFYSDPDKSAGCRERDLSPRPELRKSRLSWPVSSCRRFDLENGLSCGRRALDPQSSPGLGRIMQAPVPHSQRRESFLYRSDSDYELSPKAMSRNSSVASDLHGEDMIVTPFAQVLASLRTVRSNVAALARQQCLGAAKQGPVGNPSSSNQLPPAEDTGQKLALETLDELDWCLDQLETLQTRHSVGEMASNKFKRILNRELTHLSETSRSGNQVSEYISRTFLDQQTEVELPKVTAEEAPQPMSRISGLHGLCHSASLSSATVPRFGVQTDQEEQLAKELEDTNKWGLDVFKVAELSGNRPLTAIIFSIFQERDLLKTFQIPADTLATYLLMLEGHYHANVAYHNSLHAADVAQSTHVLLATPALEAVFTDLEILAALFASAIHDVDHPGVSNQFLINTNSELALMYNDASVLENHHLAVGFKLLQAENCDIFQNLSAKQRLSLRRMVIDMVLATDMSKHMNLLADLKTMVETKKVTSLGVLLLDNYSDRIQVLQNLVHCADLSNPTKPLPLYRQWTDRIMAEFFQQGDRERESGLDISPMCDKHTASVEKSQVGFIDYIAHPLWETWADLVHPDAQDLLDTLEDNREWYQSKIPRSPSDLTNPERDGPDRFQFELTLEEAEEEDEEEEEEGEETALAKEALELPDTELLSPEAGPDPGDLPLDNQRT
Method: as §1
(§3) The recombinant Bacmid was isolated and used to transfect insect cells to generate a viral stock. To generate cell paste for purification, insect cells were infected with the virus stock and cells were harvested 72 hours after infection. Insect cell paste was lysed and after centrifugation, the supernatant was batch bound to Ni-NTA agarose (GE Healthcare) and eluted with 250 mM imidazole. This eluate was diluted with FLAG buffer (50 mM Tris HCL pH 7.5, 100 mM NaCl, 5% Glycerol, 1 mM TCEP with protease inhibitors) and batch bound to ant-FLAG M2 agarose (Sigma) overnight at 4° C. The agarose was packed into a column, washed with buffer and eluted with buffer containing elute using 250 ug/ml Flag-peptide. Fractions were analyzed using SDS-PAGE Coomassie blue staining and pooled based on purity. Pooled fractions were chromatographed on a S200 120 ml column (GE Healthcare) in 50 mM Tris HCL pH 7.5, 150 mM NaCl, 10% Glycerol, 2 mM TCEP with protease inhibitors. PDE4C1 fractions were analyzed by SDS-PAGE Coomassie blue staining, pooled based on purity, dialyzed against 50 mM Tris HCL pH 7.5, 100 mM NaCl, 20% Glycerol, 2 mM TCEP, frozen and stored at −80° C.
as §2

Human PDE4A3 = Human PDE4A3 (Homo sapiens (Human), UniProt P27815); assay: PDE4A3 Scintillation Proximity Assay (SPA), inhibition of enzyme activity; settings: read-out: Human PDE4A FL
Chain of Human PDE4A3 (P27815 other isoform, or with tags, fused parts or gaps): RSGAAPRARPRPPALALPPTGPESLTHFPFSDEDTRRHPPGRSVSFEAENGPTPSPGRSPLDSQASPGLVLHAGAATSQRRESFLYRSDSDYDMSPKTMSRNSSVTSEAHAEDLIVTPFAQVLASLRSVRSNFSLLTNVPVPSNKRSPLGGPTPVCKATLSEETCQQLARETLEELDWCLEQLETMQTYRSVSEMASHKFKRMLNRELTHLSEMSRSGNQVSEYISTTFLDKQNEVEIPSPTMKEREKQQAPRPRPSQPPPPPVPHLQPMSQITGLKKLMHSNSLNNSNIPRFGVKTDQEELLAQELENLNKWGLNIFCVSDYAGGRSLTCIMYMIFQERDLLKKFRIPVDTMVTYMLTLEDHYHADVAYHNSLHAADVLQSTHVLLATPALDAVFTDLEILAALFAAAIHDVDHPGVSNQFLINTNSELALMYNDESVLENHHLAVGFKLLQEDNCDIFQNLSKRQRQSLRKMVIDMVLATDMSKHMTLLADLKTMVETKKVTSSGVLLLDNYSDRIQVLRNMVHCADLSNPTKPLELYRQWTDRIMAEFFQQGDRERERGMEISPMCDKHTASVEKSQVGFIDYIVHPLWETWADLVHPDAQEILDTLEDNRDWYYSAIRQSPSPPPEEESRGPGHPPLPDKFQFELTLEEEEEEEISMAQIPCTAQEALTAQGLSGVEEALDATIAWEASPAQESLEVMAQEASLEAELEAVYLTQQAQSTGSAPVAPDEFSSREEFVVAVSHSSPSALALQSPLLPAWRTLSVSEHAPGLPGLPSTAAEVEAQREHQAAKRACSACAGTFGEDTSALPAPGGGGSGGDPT
Method: as §1
as §3, with “PDE4A3” for “PDE4C1”
as §2

human PDE4D3 = human PDE4D3 (Homo sapiens (Human), UniProt Q08499); assay: PDE4D3 Scintillation Proximity Assay (SPA), inhibition of enzyme activity; settings: read-out: Human PDE4D FL
Chain of human PDE4D3 (Q08499 186-808): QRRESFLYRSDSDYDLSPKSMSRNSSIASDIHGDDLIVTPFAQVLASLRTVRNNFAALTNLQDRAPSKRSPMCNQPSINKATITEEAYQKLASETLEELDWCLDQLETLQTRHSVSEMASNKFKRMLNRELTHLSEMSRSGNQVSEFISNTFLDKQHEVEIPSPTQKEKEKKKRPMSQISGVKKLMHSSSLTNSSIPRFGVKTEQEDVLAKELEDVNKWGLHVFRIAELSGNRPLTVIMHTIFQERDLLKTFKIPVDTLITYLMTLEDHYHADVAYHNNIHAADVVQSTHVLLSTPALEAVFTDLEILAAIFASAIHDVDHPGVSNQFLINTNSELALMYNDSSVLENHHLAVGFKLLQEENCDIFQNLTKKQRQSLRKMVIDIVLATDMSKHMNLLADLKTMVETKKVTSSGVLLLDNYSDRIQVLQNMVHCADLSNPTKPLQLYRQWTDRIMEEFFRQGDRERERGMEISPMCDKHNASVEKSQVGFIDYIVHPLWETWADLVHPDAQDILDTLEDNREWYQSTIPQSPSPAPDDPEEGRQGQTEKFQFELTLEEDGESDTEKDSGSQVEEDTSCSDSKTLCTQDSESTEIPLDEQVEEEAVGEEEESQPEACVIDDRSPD
Method: as §1
A portion of the human PDE4D3 coding sequence (amino acids 50 to 672 from the sequence with accession number Q08499-2) was cloned into the baculovirus expression vector pFastBac (Invitrogen) engineered to include a C-terminal His6 affinity tag to aid in purification as described in Seeger, T. F. et al., Brain Research 985 (2003) 113-126. The recombinant Bacmid was isolated and used to transfect insect cells to generate a viral stock. To generate cell paste for purification, insect cells were infected and cells were harvested 72 hours after infection. Insect cell paste was lysed and after centrifugation, the supernatant was chromatographed on Ni-NTA agarose (Qiagen) as described in Seeger, T. F. et al., Brain Research 985 (2003) 113-126. Ni-NTA agarose eluting fractions containing PDE4 were pooled, diluted with Q Buffer A (50 mM Tris HCl pH 8, 4% glycerol, 100 mM NaCl, 1 mM TCEP, Protease inhibitors EDTA-free (Roche)) to reduce NaCl to ˜200 mM, and loaded on a Q Sepharose (GE Healthcare) column. After washing with Q buffer A to baseline, PDE4D was eluted with a gradient from 10% to 60% of Buffer B (50 mM Tris HCl pH 8, 1 M NaCl, 4% glycerol, 1 mM TCEP). PDE4D fractions were analyzed by SDS-PAGE Coomassie blue staining, pooled based on purity, frozen and stored at −80° C.
as §2

[1] = Table 9, geometric mean of 2-9 determinations unless otherwise indicated
[2] = Table 10, geometric mean of 2-9 determinations unless otherwise indicated

Chain of Human PDE4B1 (Q07343 122-736 S133E/S654A/S659A/S661A): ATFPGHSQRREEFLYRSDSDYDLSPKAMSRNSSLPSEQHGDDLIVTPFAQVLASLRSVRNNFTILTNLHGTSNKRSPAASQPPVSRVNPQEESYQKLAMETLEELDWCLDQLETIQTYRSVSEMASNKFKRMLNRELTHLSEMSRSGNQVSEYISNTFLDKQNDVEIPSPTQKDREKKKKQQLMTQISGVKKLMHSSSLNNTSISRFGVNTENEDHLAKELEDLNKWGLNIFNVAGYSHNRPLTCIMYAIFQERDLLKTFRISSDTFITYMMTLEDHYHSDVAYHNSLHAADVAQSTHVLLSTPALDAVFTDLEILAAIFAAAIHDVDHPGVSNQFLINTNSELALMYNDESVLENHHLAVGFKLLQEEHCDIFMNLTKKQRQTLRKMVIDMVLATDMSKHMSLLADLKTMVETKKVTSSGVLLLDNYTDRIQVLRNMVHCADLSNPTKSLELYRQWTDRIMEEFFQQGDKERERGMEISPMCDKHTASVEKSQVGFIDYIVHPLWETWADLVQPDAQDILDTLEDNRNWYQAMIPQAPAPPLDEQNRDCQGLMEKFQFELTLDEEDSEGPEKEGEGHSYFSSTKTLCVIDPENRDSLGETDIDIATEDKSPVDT

| Structure (SMILES) | IC50 (Human PDE4B1; [1]) | IC50 (Human PDE4C1; [1]) | IC50 (Human PDE4A3; [1]) | IC50 (human PDE4D3; [1]) | IC50 (Human PDE4B1; [2]) | IC50 (Human PDE4C1; [2]) | IC50 (Human PDE4A3; [2]) | IC50 (human PDE4D3; [2]) |
| --- | --- | --- | --- | --- | --- | --- | --- | --- |
| O=C1c2c(-c3cc(F)c(Cl)cc3F)c3c(n2CCN1C1CC1)CCCO3 [Example 77, 10-(4-Chloro-2,5-difluorophenyl)-8-cyclopropyl-3,4,7,8-tetrahydro-2H-pyrano[2′,3′:4,5]pyrrolo[1,2-a]pyrazin-9(6H)-one] | 0.84 nM | 5.94 nM | 1 nM | 56.2 nM | – | – | – | – |
| CS(=O)(=O)N1CCn2c(c(-c3ccc(Cl)cc3)c3ncccc32)C1=O [Example 79, 10-(4-Chlorophenyl)-8-(methylsulfonyl)-7,8-dihydropyrido[2′,3′:4,5]pyrrolo[1,2-a]pyrazin-9(6H)-one] | – | – | – | – | 212 nM | 173 nM | 104 nM | 120 nM |
| N#Cc1ccc(-c2c3n(c4scnc24)CCN(C2CC2)C3=O)cn1 [Example 71, 5-(7-Cyclopropyl-8-oxo-5,6,7,8-tetrahydro[1,3]thiazolo[4′,5′:4,5]pyrrolo[1,2-a]pyrazin-9-yl)pyridine-2-carbonitrile] | 43.5 nM | 52.5 nM | 27.6 nM | 1070 nM | – | – | – | – |
| CCCc1cnc(N2CCn3c(c(-c4ccc(Cl)cc4)c4ncccc43)C2=O)nc1 [Example 95, 10-(4-Chlorophenyl)-8-(5-propylpyrimidin-2-yl)-7,8-dihydropyrido[2′,3′:4,5]pyrrolo[1,2-a]pyrazin-9(6H)-one] | – | – | – | – | 1890 nM | 649 nM | 345 nM | 1920 nM |
| COc1c(F)cc(-c2c3n(c4cccnc24)CCN(C2CC2)C3=O)cc1F [Example 24, 8-Cyclopropyl-10-(3,5-difluoro-4-methoxyphenyl)-7,8-dihydropyrido[2′,3′:4,5]pyrrolo[1,2-a]pyrazin-9(6H)-one] | 2.94 nM | 24.5 nM | 4.48 nM | 125 nM | – | – | – | – |
| Cc1cc(C#N)ccc1-c1c2n(c3scnc13)CCN(C1CC1)C2=O [Example 14, 4-(7-Cyclopropyl-8-oxo-5,6,7,8-tetrahydro[1,3]thiazolo[4′,5′:4,5]pyrrolo[1,2-a]pyrazin-9-yl)-3-methylbenzonitrile] | 19.3 nM | 79 nM | 18.5 nM | 2090 nM | – | – | – | – |
| O=C1c2c(-c3ccc(Cl)cc3)c3ncccc3n2CCN1c1ncccn1 [Example 1, 10-(4-Chlorophenyl)-8-(pyrimidin-2-yl)-7,8-dihydropyrido[2′,3′:4,5]pyrrolo[1,2-a]pyrazin-9(6H)-one] | 16.1 nM | 182 nM | 18.8 nM | 1230 nM | – | – | – | – |
| O=C1c2c(-c3ccc(Cl)cc3)c3ncncc3n2CCN1C1CC1 [Example 25, 10-(4-Chlorophenyl)-8-cyclopropyl-7,8-dihydropyrazino[1′,2′:1,5]pyrrolo[3,2-d]pyrimidin-9(6H)-one] | 48.2 nM | 100 nM | 25 nM | 1780 nM | – | – | – | – |
| Cc1nc(-c2c3n(c4cccnc24)CCN(C2CC2)C3=O)cs1 [Example 88, 8-Cyclopropyl-10-(2-methylthiazol-4-yl)-7,8-dihydropyrido[2′,3′:4,5]pyrrolo[1,2-a]pyrazin-9(6H)-one] | – | – | – | – | 11000 nM | 8420 nM | 8080 nM | 16100 nM |

Second part, the molecule after the results:

| IC50 (Human PDE4B1; [1]) | IC50 (Human PDE4C1; [1]) | IC50 (Human PDE4A3; [1]) | IC50 (human PDE4D3; [1]) | IC50 (Human PDE4B1; [2]) | IC50 (Human PDE4C1; [2]) | IC50 (Human PDE4A3; [2]) | IC50 (human PDE4D3; [2]) | Structure (SMILES) |
| --- | --- | --- | --- | --- | --- | --- | --- | --- |
| 2.7 nM | 6.59 nM | 1.86 nM | 182 nM | – | – | – | – | Cc1ccc(-c2c3ncccc3n3ccn(C4CC4)c(=O)c23)cc1 [Example 13, 8-Cyclopropyl-10-(4-methylphenyl)pyrido[2′,3′:4,5]pyrrolo[1,2-a]pyrazin-9(8H)-one] |
| < 0.42 nM | 4 nM | < 0.99 nM | 75.3 nM | – | – | – | – | O=C1c2c(-c3ccc(Cl)cc3)c3ncccc3n2CCN1C1CC1 [Example 2, 10-(4-Chlorophenyl)-8-cyclopropyl-7,8-dihydropyrido[2′,3′:4,5]pyrrolo[1,2-a]pyrazin-9(6H)-one] |
| 6.9 nM | 9.62 nM | 2.99 nM | 356 nM | – | – | – | – | Cc1cc(C#N)ccc1-c1c2n(c3cccnc13)CCN(C1CC1)C2=O [Example 50, 4-(8-Cyclopropyl-9-oxo-6,7,8,9-tetrahydropyrido[2′,3′:4,5]pyrrolo[1,2-a]pyrazin-10-yl)-3-methylbenzonitrile] |
| 2.67 nM | 8.55 nM | 2.8 nM | 108 nM | – | – | – | – | N#Cc1ccc(-c2c3ncccc3n3ccn(C4CC4)c(=O)c23)cc1 [Example 70, 4-(8-Cyclopropyl-9-oxo-8,9-dihydropyrido[2′,3′:4,5]pyrrolo[1,2-a]pyrazin-10-yl)benzonitrile] |
| 11.3 nM | 20.2 nM | 7.47 nM | 872 nM | – | – | – | – | N#Cc1ccc(-c2c3n(c4cccnc24)CCN(C2CC2)C3=O)c(F)c1 [Example 22, 4-(8-Cyclopropyl-9-oxo-6,7,8,9-tetrahydropyrido[2′,3′:4,5]pyrrolo[1,2-a]pyrazin-10-yl)-3-fluorobenzonitrile] |
| < 0.81 nM | 17 nM | 4.66 nM | 36.3 nM | – | – | – | – | N#Cc1ccc(-c2c3n(c4cccnc24)CCN(C2CC2)C3=O)cc1F [Example 4, 4-(8-Cyclopropyl-9-oxo-6,7,8,9-tetrahydropyrido[2′,3′:4,5]pyrrolo[1,2-a]pyrazin-10-yl)-2-fluorobenzonitrile] |
